{
  "source": "patent US4207326A",
  "about": "“Antimicrobial quaternary pyrazole derivatives” (Cilag-Chemie A.G., priority 1979, dated 1980)",
  "data": [
    {"system": "E. coli", "test": "Antibacterial activity: Minimum Inhibitory Concentration", "type": "cell-based, Escherichia coli ATCC 8739", "conditions": "Day 1, 37° C., 24 hours", "experimental": "(§1) The antimicrobial activity was determined by inoculation of the test microorganism into suitable growth media containing solutions of the compounds at concentrations of 100, 50, 10, 5, 1.0, 0.5 and 0.1 μg/ml. The reference antibiotics used were Gentamicin for the antibacterial tests and Amphotericin B for the antimycotic and antifungal tests. After incubation the antimicrobial activity was recorded as the Minimal Inhibitory Concentration (M.I.C.), i.e., the lowest concentration preventing macroscopically visible growth, for each test compound against each organism.\n(§2) An initial solution of each formula (I) compound to be tested in sterile distilled water was prepared at a concentration of 1000 μg/ml. With appropriate dilutions using sterile distilled water, additional solutions were prepared at concentrations of 500, 100, 50, 10, 5 and 1 μg/ml.\n(§3) They were cultured and maintained on Tryptone Soy Agar (Oxoid CM 131), with the addition of 10% horse blood for the S. pyogenes.\n(§4) To prepare the organisms as inocula for the test, slopes of this medium were streaked with the organisms and incubated at 37° C. for 24 hours. 4.5 Ml volumes of Brian-Heart Infusion Broth (Oxoid CM 225) were then inoculated with a platinum loop from the agar slope cultures and incubated for 24 hours at 37° C. The final inocula were then prepared by adding 0.1 ml aliquots of the Brain-Heart Infusion Broth cultures to 100 ml volumes of sterile physiological saline.\n(§5) (a) For the test on each of the bacterial strains and each of the test and reference compounds, a series of 8 tubes containing 4.5 ml volumes of Brain-Heart Infusion Broth (Oxoid CM 225) were prepared. To 7 of these were added 0.5 ml volumes of the final solutions of the test compouns, giving final concentrations in the broths of 100, 50, 10, 5, 1.0, 0.5 and 0.1 μg/ml. To the eighth tube in each series was added 0.5 ml of the solvent used and diluted as for the preparation of the 1000 μg/ml solution of the compound. This tube was used as the growth control. The tubes were inoculated with 0.02 ml aliquots of the inocula prepared in accordance with \"(a) Bacteria\" above, and incubated at 37° C. for 24 hours. The tubes were then examined for evidence of bacterial growth as shown by turbidity of the medium and the lowest concentration of the test compound which prevented bacterial growth was recorded as the Minimal Inhibitory Concentration. This test procedure was carried out on two separate days.", "units": {"Minimum Inhibitory Concentration": "µg/mL"}, "values": [
      {"substance": "2,3(5)-dimethyl-1-dodecyl-pyrazolium methosulfate [Example 8-A]", "Minimum Inhibitory Concentration": 50},
      {"substance": "2,3(5)-dimethyl-1-hexadecyl-pyrazolium methosulfate [Example 9]", "Minimum Inhibitory Concentration": 50}
    ]},
    {"system": "E. coli", "test": "Antibacterial activity: Minimum Inhibitory Concentration", "type": "cell-based, Escherichia coli ATCC 8739", "conditions": "Day 2, 37° C., 24 hours", "experimental": "as §1, §2, §3, §4, §5", "units": {"Minimum Inhibitory Concentration": "µg/mL"}, "values": [
      {"substance": "2,3(5)-dimethyl-1-dodecyl-pyrazolium methosulfate [Example 8-A]", "Minimum Inhibitory Concentration": 50},
      {"substance": "2,3(5)-dimethyl-1-hexadecyl-pyrazolium methosulfate [Example 9]", "Minimum Inhibitory Concentration": 10}
    ]},
    {"system": "P. mirabilis", "test": "Antibacterial activity: Minimum Inhibitory Concentration", "type": "cell-based, Proteus mirabilis NCTC 8559", "conditions": "P. mirabilis, Day 1; 37° C., 24 hours", "experimental": "as §1, §2, §3, §4, §5", "units": {"Minimum Inhibitory Concentration": "µg/mL"}, "values": [
      {"substance": "2,3(5)-dimethyl-1-dodecyl-pyrazolium methosulfate [Example 8-A]", "Minimum Inhibitory Concentration": 100},
      {"substance": "2,3(5)-dimethyl-1-hexadecyl-pyrazolium methosulfate [Example 9]", "Minimum Inhibitory Concentration": 10}
    ]},
    {"system": "P. mirabilis", "test": "Antibacterial activity: Minimum Inhibitory Concentration", "type": "cell-based, Proteus mirabilis NCTC 8559", "conditions": "P. mirabilis, Day 2; 37° C., 24 hours", "experimental": "as §1, §2, §3, §4, §5", "units": {"Minimum Inhibitory Concentration": "µg/mL"}, "values": [
      {"substance": "2,3(5)-dimethyl-1-dodecyl-pyrazolium methosulfate [Example 8-A]", "Minimum Inhibitory Concentration": 100},
      {"substance": "2,3(5)-dimethyl-1-hexadecyl-pyrazolium methosulfate [Example 9]", "Minimum Inhibitory Concentration": 10}
    ]},
    {"system": "C. tropicalis", "test": "Antimycotic activity: Minimum Inhibitory Concentration", "type": "cell-based, Candida tropicalis NCPF 3111", "conditions": "C. tropicalis, Day 1; pH 5.5, 37° C., 72 hours", "experimental": "as §1, §2\n(§6) The two species, C. albicans and C. tropicalis, were maintained on Sabouraud-Dextrose Agar (Oxoid CM41) and cultures for the preparation of the inoculum were incubated on this agar at 37° C. for 48 hours. 4.5 Ml volumes of citric acid-phosphate buffer pH 5.5 plus Yeast-Nitrogen Base (Difco 0392-15) were then inoculated from the agar cultures and incubated at 37° C. for 48 hours. 0.1 Ml aliquots of these cultures were then added to 100 ml volumes of sterile physiological saline to give the final inocula.\n(§7) (b) For the tests on each of the C. albicans, C. tropicalis and C. neoformans strains and each of the test and reference compounds, a series of 8 tubes containing 4.5 ml volumes of citric acid-phosphate buffer pH 5.5 plus Yeast-Nitrogen Base (Difco 0392-15) were prepared. To 7 of these were added 0.5 ml volumes of the final solutions of the test compounds, giving final concentrations in the broths of 100, 50, 10, 5, 1.0, 0.5 and 0.1 μg/ml. To the eighth tube in each series was added 0.5 ml of the solvent used and diluted as for the preparation of the 1000 μg/ml solution of the compound. This tube was used as the growth control. The tubes were then inoculated with 0.1 ml aliquots of the inocula prepared as in \"(b) Fungi\" above. The tubes inoculated with the C. albicans and C. tropicalis were inoculated at 37° C. for 72 hours and the tubes inoculated with the C. neoformans straim were incubated at 30° C. for 72 hours. […] The tubes were then examined for evidence of growth as shown by turbidity of the medium and the lowest concentration of the test compound which prevented fungal growth was recorded as the Minimal Inhibitory Concentration. This test procedure was carried out on two separate days.", "units": {"Minimum Inhibitory Concentrations": "µg/mL"}, "values": [
      {"substance": "2,3(5)-dimethyl-1-dodecyl-pyrazolium methosulfate [Example 8-A]", "Minimum Inhibitory Concentrations": 5},
      {"substance": "2,3(5)-dimethyl-1-hexadecyl-pyrazolium methosulfate [Example 9]", "Minimum Inhibitory Concentrations": 5}
    ]},
    {"system": "C. tropicalis", "test": "Antimycotic activity: Minimum Inhibitory Concentration", "type": "cell-based, Candida tropicalis NCPF 3111", "conditions": "C. tropicalis, Day 2; pH 5.5, 37° C., 72 hours", "experimental": "as §1, §2, §6, §7", "units": {"Minimum Inhibitory Concentrations": "µg/mL"}, "values": [
      {"substance": "2,3(5)-dimethyl-1-dodecyl-pyrazolium methosulfate [Example 8-A]", "Minimum Inhibitory Concentrations": 5},
      {"substance": "2,3(5)-dimethyl-1-hexadecyl-pyrazolium methosulfate [Example 9]", "Minimum Inhibitory Concentrations": 1}
    ]},
    {"system": "T. mentagrophytes", "test": "Antifungal activity: Minimum Inhibitory Concentration", "type": "cell-based, Trichophyton mentagrophytes NCPF 410", "conditions": "T. mentagrophytes, Day 1; 27° C., one week", "experimental": "as §1, §2\n(§8) T. mentagrophytes NCPF 410\n(§9) The A. corymbifera, A. fumigatus, S. schenkii, T. rubrum, T. mentagrophytes, M. canis and P. verrucosa strains were all maintained on Sabouraud-Dextrose Agar (Oxoid CM 41) by incubating for 14 days at 27° C. To prepare the inocula 30 ml volumes of Sabouraud-Liquid medium (Oxoid CM 147) were inoculated from the agar cultures and incubated at 27° C. until heavy uniform growth resulted. The mycelial growth was then broken up by shaking with glass beads.\n(§10) 1 Ml aliquots were removed from each of the cultures for the purpose of making viable counts and the cultures were then held at 4° C. The viable counts were made by preparing serial ten-fold dilutions of the cultures in sterile physiological saline and spreading on plates of Sabouraud-Dextrose Agar (Oxoid CM 41) which were then incubated at 27° C. for 14 days. When the viable counts had confirmed that each of the inocula contained approximately 10^6 colony forming units (C.F.U.) per ml the cultures were withdrawn from the refrigerator and used as the inocula for the tests.\n(§11) (c) For the tests on each of the remaining seven strains and each of the test and reference compounds, a series of 8 tubes containing 4.5 ml volumes of Sabouraud-Liquid Medium (Oxoid CM 147) were prepared. To 7 of these were added 0.5 ml volumes of the final solutions of the test compounds, giving final concentrations in the broths of 100, 50, 10, 5, 1.0, 0.5 and 0.1 μg/ml. To the eighth tube in each series was added 0.5 ml of the solvent used and diluted as for the preparation of the 500 μg/ml solution of the compound. This tube was used as a growth control. The tubes were then inoculated with 0.1 ml aliquots of the inocula prepared as in \"(b) Fungi\" above. The tubes were then incubated at 27° C. with continuous shaking for a period of one week. The tubes were then examined for evidence of growth as shown by the presence of mycelial growth in the medium and the lowest concentration of the test compound which prevented fungal growth was recorded as the Minimal Inhibitory Concentration. This test procedure was carried out on two separate days.", "units": {"Minimum Inhibitory Concentration": "µg/mL"}, "values": [
      {"substance": "2,3(5)-dimethyl-1-dodecyl-pyrazolium methosulfate [Example 8-A]", "Minimum Inhibitory Concentration": 5},
      {"substance": "2,3(5)-dimethyl-1-hexadecyl-pyrazolium methosulfate [Example 9]", "Minimum Inhibitory Concentration": 5}
    ]},
    {"system": "T. mentagrophytes", "test": "Antifungal activity: Minimum Inhibitory Concentration", "type": "cell-based, Trichophyton mentagrophytes NCPF 410", "conditions": "T. mentagrophytes, Day 2; 27° C., one week", "experimental": "as §1, §2, §8, §9, §10, §11", "units": {"Minimum Inhibitory Concentration": "µg/mL"}, "values": [
      {"substance": "2,3(5)-dimethyl-1-dodecyl-pyrazolium methosulfate [Example 8-A]", "Minimum Inhibitory Concentration": 5},
      {"substance": "2,3(5)-dimethyl-1-hexadecyl-pyrazolium methosulfate [Example 9]", "Minimum Inhibitory Concentration": 5}
    ]},
    {"system": "M. canis", "test": "Antifungal activity: Minimum Inhibitory Concentration", "type": "cell-based, Microsporum canis NCPF 351", "conditions": "M. canis, Day 1; 27° C., one week", "experimental": "as §1, §2, §9, §10, §11", "units": {"Minimum Inhibitory Concentration": "µg/mL"}, "values": [
      {"substance": "2,3(5)-dimethyl-1-dodecyl-pyrazolium methosulfate [Example 8-A]", "Minimum Inhibitory Concentration": 5},
      {"substance": "2,3(5)-dimethyl-1-hexadecyl-pyrazolium methosulfate [Example 9]", "Minimum Inhibitory Concentration": 5}
    ]},
    {"system": "M. canis", "test": "Antifungal activity: Minimum Inhibitory Concentration", "type": "cell-based, Microsporum canis NCPF 351", "conditions": "M. canis, Day 2; 27° C., one week", "experimental": "as §1, §2, §9, §10, §11", "units": {"Minimum Inhibitory Concentration": "µg/mL"}, "values": [
      {"substance": "2,3(5)-dimethyl-1-dodecyl-pyrazolium methosulfate [Example 8-A]", "Minimum Inhibitory Concentration": 1},
      {"substance": "2,3(5)-dimethyl-1-hexadecyl-pyrazolium methosulfate [Example 9]", "Minimum Inhibitory Concentration": 5}
    ]},
    {"system": "P. verrucosa", "test": "Antifungal activity: Minimum Inhibitory Concentration", "type": "cell-based, Phialophore verrucosa NCPF 1119", "conditions": "P. verrucosa, Day 1; 27° C., one week", "experimental": "as §1, §2, §9, §10, §11", "units": {"Minimum Inhibitory Concentration": "µg/mL"}, "values": [
      {"substance": "2,3(5)-dimethyl-1-dodecyl-pyrazolium methosulfate [Example 8-A]", "Minimum Inhibitory Concentration": 10},
      {"substance": "2,3(5)-dimethyl-1-hexadecyl-pyrazolium methosulfate [Example 9]", "Minimum Inhibitory Concentration": 5}
    ]},
    {"system": "P. verrucosa", "test": "Antifungal activity: Minimum Inhibitory Concentration", "type": "cell-based, Phialophore verrucosa NCPF 1119", "conditions": "P. verrucosa, Day 2; 27° C., one week", "experimental": "as §1, §2, §9, §10, §11", "units": {"Minimum Inhibitory Concentration": "µg/mL"}, "values": [
      {"substance": "2,3(5)-dimethyl-1-dodecyl-pyrazolium methosulfate [Example 8-A]", "Minimum Inhibitory Concentration": 10},
      {"substance": "2,3(5)-dimethyl-1-hexadecyl-pyrazolium methosulfate [Example 9]", "Minimum Inhibitory Concentration": 10}
    ]}
  ]
}
